Assay results as given in US9650379B2 (CHONG KUN DANG PHARMACEUTICAL CORP., priority 2013, dated 2017).

Key:
HDAC1 = biological target: T1, HDAC1 (Homo sapiens, UniProt Q13547); experiment: Inhibition of HDAC1 activity (HDAC1 fluorimetric drug discovery assay kit); type: biochemical; settings: test concentrations 100, 1000 and 10000 nM; 37° C., 60 minutes
T1 construct: purchased Enzolifesciences BML-AK511
Description: (§1) Assays were performed using a HDAC1 fluorimetric drug discovery assay kit (Enzolifesciences: BML-AK511) and a HDAC6 human recombinant (Calbiochem: 382180). The assay mixture of the kit was treated with a test compound at concentrations of 100, 1000 and 10000 nM for HDAC1 assay and concentrations of 0.1, 1, 10, 100 and 1000 nM for HDAC6 assay. The treated assay mixture was allowed to react at 37° C. for 60 minutes, and then was treated with a developer and allowed to stand at 37° C. for 30 minutes, followed by quantification of the fluorescence.

HDAC6 human recombinant = biological target: T2, HDAC6 human recombinant (Homo sapiens, UniProt Q9UBN7); experiment: Inhibition of HDAC6 activity (fluorimetric assay); type: biochemical; settings: test concentrations 0.1, 1, 10, 100 and 1000 nM; 37° C., 60 minutes
T2 construct: purchased Calbiochem 382180
T2 sequence (Q9UBN7 1-1215): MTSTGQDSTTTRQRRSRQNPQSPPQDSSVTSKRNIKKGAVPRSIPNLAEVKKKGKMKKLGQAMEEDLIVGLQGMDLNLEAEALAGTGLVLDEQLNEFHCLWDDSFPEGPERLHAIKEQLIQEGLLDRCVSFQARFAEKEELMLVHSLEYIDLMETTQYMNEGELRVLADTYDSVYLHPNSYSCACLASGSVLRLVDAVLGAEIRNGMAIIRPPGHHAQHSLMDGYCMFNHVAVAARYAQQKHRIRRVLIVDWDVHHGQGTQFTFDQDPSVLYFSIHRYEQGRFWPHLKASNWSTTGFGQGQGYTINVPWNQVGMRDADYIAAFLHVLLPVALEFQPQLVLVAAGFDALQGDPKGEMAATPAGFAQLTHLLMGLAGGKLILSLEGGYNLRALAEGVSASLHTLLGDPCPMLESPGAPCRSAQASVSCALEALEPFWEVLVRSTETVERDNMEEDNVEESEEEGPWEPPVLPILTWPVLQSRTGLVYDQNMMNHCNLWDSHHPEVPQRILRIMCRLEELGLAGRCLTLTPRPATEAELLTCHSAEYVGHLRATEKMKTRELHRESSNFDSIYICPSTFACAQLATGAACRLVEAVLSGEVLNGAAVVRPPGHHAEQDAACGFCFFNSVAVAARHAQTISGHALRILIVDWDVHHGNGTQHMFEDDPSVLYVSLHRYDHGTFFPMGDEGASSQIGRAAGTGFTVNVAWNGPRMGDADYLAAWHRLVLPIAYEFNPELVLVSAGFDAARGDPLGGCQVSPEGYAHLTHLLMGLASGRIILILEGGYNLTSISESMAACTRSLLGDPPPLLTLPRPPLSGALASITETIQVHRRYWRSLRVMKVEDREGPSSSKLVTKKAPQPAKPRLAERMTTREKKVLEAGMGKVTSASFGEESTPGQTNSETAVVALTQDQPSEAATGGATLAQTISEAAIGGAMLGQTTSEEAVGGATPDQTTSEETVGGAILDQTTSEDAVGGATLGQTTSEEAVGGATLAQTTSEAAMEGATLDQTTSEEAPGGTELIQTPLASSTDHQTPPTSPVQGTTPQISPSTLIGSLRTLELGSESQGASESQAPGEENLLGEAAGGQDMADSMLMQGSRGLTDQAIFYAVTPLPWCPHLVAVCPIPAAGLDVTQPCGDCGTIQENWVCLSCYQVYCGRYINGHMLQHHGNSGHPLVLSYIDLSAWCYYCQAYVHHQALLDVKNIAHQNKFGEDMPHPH
Description: as §1

T1 sequence (Q13547 whole entry): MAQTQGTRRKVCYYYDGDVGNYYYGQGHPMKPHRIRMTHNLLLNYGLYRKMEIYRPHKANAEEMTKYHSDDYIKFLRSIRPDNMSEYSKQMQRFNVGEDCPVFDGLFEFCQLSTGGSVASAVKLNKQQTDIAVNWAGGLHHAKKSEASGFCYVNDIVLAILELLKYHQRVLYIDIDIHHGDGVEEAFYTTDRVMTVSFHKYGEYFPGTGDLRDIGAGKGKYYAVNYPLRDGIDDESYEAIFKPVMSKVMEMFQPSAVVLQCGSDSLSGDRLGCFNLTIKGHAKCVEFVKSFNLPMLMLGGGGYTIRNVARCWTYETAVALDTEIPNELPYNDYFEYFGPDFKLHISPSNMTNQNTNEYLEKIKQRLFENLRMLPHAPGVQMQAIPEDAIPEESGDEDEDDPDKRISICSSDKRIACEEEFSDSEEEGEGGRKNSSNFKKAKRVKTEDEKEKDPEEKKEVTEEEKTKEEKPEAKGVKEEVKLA

SMILES	IC50 (HDAC1) [nM]	IC50 (HDAC6 human recombinant) [nM]
O=C(NO)c1ccc(Cn2ccc3cc(N4CCN(Cc5ccccc5F)CC4)cnc32)cc1 [Compound 861, 4-((5-(4-(2-fluorobenzyl)piperazin-1-yl)-1H-pyrrolo[2,3-b]pyridin-1-yl)methyl)-N-hydroxybenzamide]	1880	11.2
CC(C)(O)CN1C2CCC1CC(c1ccnc3c1ccn3Cc1ccc(C(=O)NO)cc1)C2 (stereo not shown) [Compound 930, N-hydroxy-4-((4-(8-(2-hydroxy-2-methylpropyl)-8-aza-bicyclo[3.2.1]octan-3-yl)-1H-pyrrolo[2,3-b]pyridin-1-yl)methyl)benzamide]	250	1.7
O=C(NO)c1ccc(Cn2ccc3c(-c4cncnc4)ccnc32)cc1 [Compound 659, N-hydroxy-4-((4-(pyrimidin-5-yl)-1H-pyrrolo[2,3-b]pyridin-1-yl)methyl)benzamide]	900	4
O=C(NO)c1ccc(Cn2ccc3c(N4CCN(Cc5cccc(F)c5)CC4)ccnc32)cc1 [Compound 848, 4-((4-(4-(3-fluorobenzyl)piperazin-1-yl)-1H-pyrrolo[2,3-b]pyridin-1-yl)methyl)-N-hydroxybenzamide]	850	9.1
COc1cccc(CN2CCC(c3cnc4c(ccn4Cc4ccc(C(=O)NO)cc4)c3)CC2)c1 [Compound 842, N-hydroxy-4-((5-(1-(3-methoxybenzyl)piperidin-4-yl)-1H-pyrrolo[2,3-b]pyridin-1-yl)methyl)benzamide]	1790	14
CN1CCN(Cc2ccc(CN3CCC(c4ccnc5c4ccn5Cc4ccc(C(=O)NO)cc4)CC3)cc2)CC1 [Compound 988, N-hydroxy-4-((4-(1-(4-((4-methylpiperazin-1-yl)methyl)benzyl)piperidin-4-yl)-1H-pyrrolo[2,3-b]pyridin-1-yl)methyl)benzamide]	290	5.9
CC(O)(CO)CN1CCC(c2cnc3c(ccn3Cc3ccc(C(=O)NO)cc3)c2)CC1 (stereo not shown) [Compound 946, 4-((5-(1-(2,3-dihydroxy-2-methylpropyl)piperidin-4-yl)-1H-pyrrolo[2,3-b]pyridin-1-yl)methyl)-N-hydroxybenzamide]	490	2
O=C(NO)c1ccc(Cn2ccc3c(C4CCN(Cc5cccnc5)CC4)ccnc32)cc1 [Compound 1014, N-hydroxy-4-((4-(1-(pyridin-3-ylmethyl)piperidin-4-yl)-1H-pyrrolo[2,3-b]pyridin-1-yl)methyl)benzamide]	670	8.5
CC(C)(C)CCN1CCN(c2cnc3c(ccn3Cc3ccc(C(=O)NO)cc3)c2)CC1 [Compound 862, 4-((5-(4-(3,3-dimethylbutyl)piperazin-1-yl)-1H-pyrrolo[2,3-b]pyridin-1-yl)methyl)-N-hydroxybenzamide]	1430	12.1
CN1CC=C(c2ccnc3c2ccn3Cc2ccc(C(=O)NO)cc2)CC1 [Compound 723, N-hydroxy-4-((4-(1-methyl-1,2,3,6-tetrahydropyridin-4-yl)-1H-pyrrolo[2,3-b]pyridin-1-yl)methyl)benzamide]	310	5
O=C(NO)c1ccc(Cn2ccc3cc(C4CCN(Cc5ccccn5)CC4)cnc32)cc1 [Compound 844]	550	3.4
O=C(NO)c1ccc(Cn2ccc3c(C4CCN(Cc5ccccc5F)CC4)ccnc32)cc1 [Compound 869, 4-((4-(1-(2-fluorobenzyl)piperidin-4-yl)-1H-pyrrolo[2,3-b]pyridin-1-yl)methyl)-N-hydroxybenzamide]	350	26.3
O=C(NO)c1ccc(Cn2ccc3cc(C4CCNCC4)cnc32)cc1 [Compound 715, N-hydroxy-4-((5-(piperidin-4-yl)-1H-pyrrolo[2,3-b]pyridin-1-yl)methyl)benzamide]	540	8
COc1cccc(CN2CCN(c3ccnc4c3ccn4Cc3ccc(C(=O)NO)cc3)CC2)c1 [Compound 846, N-hydroxy-4-((4-(4-(3-methoxybenzyl)piperazin-1-yl)-1H-pyrrolo[2,3-b]pyridin-1-yl)methyl)benzamide]	1410	5.7
O=C(O)CCN1CCC(c2ccnc3c2ccn3Cc2ccc(C(=O)NO)cc2)CC1 [Compound 927, 3-(4-(1-(4-(hydroxycarbamoyl)benzyl)-1H-pyrrolo[2,3-b]pyridin-4-yl)piperidin-1-yl)propionic acid]	830	4.5
CC(C)(C)OC(=O)N1CC=C(c2ccc3c(ccn3Cc3ccc(C(=O)NO)cc3)n2)CC1 [Compound 758, tert-butyl 4-(1-(4-(hydroxycarbamoyl)benzyl)-1H-pyrrolo[3,2-b]pyridin-5-yl)-5,6-dihydropyridine-1(2H)-carboxylate]	1630	8
CC(C)(C)OC(=O)N1CCC(c2cnc3c(ccn3Cc3ccc(C(=O)NO)cc3)c2)CC1 [Compound 694, tert-butyl 4-(1-(4-(hydroxycarbamoyl)benzyl)-1H-pyrrolo[2,3-b]pyridin-5-yl)piperidine-1-carboxylate]	5170	28
O=C(NO)c1ccc(Cn2ccc3cc(C4=CCC(F)(F)CC4)cnc32)cc1 [Compound 650, 4-((5-(4,4-difluorocyclohex-1-en-1-yl)-1H-pyrrolo[2,3-b]pyridin-1-yl)methyl)-N-hydroxybenzamide]	2300	14
CC(C)(C)OC(=O)N1CC=C(c2ccc3ccn(Cc4ccc(C(=O)NO)cc4)c3n2)CC1 [Compound 744, tert-butyl 4-(1-(4-(hydroxycarbamoyl)benzyl)-1H-pyrrolo[2,3-b]pyridin-6-yl)-5,6-dihydropyridine-1(2H)-carboxylate]	1890	62
O=C(NO)c1ccc(Cn2ccc3cc(C4=CCCCC4)cnc32)cc1 [Compound 648, 4-((5-(cyclohex-1-en-1-yl)-1H-pyrrolo[2,3-b]pyridin-1-yl)methyl)-N-hydroxybenzamide]	3550	18
CN1CCN(c2ccccc2CN2CCC(c3cnc4c(ccn4Cc4ccc(C(=O)NO)cc4)c3)CC2)CC1 [Compound 883, N-hydroxy-4-((5-(1-(2-(4-methylpiperzin-1-yl)benzyl)piperidin-4-yl)-1H-pyrrolo[2,3-b]pyridin-1-yl)methyl)benzamide]	2090	2.1
CC(C)(O)CN1CCC(c2ccnc3c2ccn3Cc2ccc(C(=O)NO)cc2)CC1 [Compound 812, N-hydroxy-4-((4-(1-(2-hydroxy-2-methylpropyl)piperidin-4-yl)-1H-pyrrolo[2,3-b]pyridin-1-yl)methyl)benzamide]	150	5
O=C(NO)c1ccc(Cn2ccc3cc(C4CCOCC4)cnc32)cc1 [Compound 635, N-hydroxy-4-((5-(tetrahydro-2H-pyran-4-yl)-1H-pyrrolo[2,3-b]pyridin-1-yl)methyl)benzamide]	1170	11
CC(C)(F)CN1CC=C(c2cnc3c(ccn3Cc3ccc(C(=O)NO)cc3)c2)CC1 [Compound 617, 4-((5-(1-(2-fluoro-2-methylpropyl)-1,2,3,6-tetrahydropyridin-4-yl)-1H-pyrrolo[2,3-b]pyridin-1-yl)methyl)-N-hydroxybenzamide]	4220	9
CC(C)(O)CN1CC2(CCN(c3ccnc4c3ccn4Cc3ccc(C(=O)NO)cc3)CC2)C1 [Compound 1025, N-hydroxy-4-((4-(2-(2-hydroxy-2-methylpropyl)-2,7-diazaspiro[3.5]nonan-7-yl)-1H-pyrrolo[2,3-b]pyridin-1-yl)methyl)benzamide]	170	1.1
O=C(NO)c1ccc(Cn2ccc3cc(C4CCN(Cc5ccc(F)cc5)CC4)cnc32)cc1 [Compound 843, 4-((5-(1-(4-fluorobenzyl)piperidin-4-yl)-1H-pyrrolo[2,3-b]pyridin-1-yl)methyl)-N-hydroxybenzamide]	770	14
